# Measured values: BindingDB's records for doi:10.1074/jbc.M112.399303 (Universidade Federal do Rio de Janeiro, 2014)
# Legend:
# Assay in all cases: Diffusion Ordered Spectroscopy (DOSY)
# Details in all cases: 11 °C
# Trans-sialidase [3-643] = target: T1, Trans-sialidase [3-643] (Trypanosoma cruzi, UniProt Q9BHJ5)
# T1 construct: 3-643
# T1 sequence (Q9BHJ5 whole entry): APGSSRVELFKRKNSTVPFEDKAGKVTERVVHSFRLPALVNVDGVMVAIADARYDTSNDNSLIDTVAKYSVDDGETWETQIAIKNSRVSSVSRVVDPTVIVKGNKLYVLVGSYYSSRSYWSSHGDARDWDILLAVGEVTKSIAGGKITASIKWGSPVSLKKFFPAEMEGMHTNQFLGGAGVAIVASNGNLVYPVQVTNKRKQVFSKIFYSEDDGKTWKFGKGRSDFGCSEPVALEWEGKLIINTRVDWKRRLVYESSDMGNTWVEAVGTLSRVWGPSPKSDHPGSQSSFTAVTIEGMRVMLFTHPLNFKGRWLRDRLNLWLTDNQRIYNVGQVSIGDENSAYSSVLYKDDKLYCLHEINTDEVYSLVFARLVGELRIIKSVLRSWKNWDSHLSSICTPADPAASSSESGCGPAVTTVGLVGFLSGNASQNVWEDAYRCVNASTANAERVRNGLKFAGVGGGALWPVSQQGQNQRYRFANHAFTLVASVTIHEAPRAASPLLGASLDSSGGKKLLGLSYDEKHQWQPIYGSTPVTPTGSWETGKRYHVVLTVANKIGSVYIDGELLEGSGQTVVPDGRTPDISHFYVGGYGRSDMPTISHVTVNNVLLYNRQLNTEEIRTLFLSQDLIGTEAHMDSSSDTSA
# Method: (§1) Solutions of TS, TSY342H, and TSD247A in 20 mM Tris-HCl were exchanged with deuterated PBS using four cycles of concentration with Amicon Ultra (50,000 nominal molecular weight limit; Millipore) and diluted in deuterated PBS. One hundred microliters of 0.1 mM protein solution (TcTSs or BSA) was titrated with the sialoside (0.2, 0.4, 0.6, 0.8, 1.0, 1.2, 1.6, and 2.0 mM) or lacto-N-neotetraose (0.1, 0.2, 0.3, 0.4, 0.5, 0.6, 0.7, and 0.9mM) as a negative control. The solution containing 0.1 mM protein plus sialoside was further titrated with Me-Lac (0.1, 0.2, 0.3, 0.4, 0.5, 0.6, 0.7, and 0.9 mM) in Shigemi tubes. NMR spectra were obtained at a probe temperature of 293 K on a Bruker DMX 600-MHz spectrometer equipped with a 5-mm self-shielded gradient triple resonance probe. All DOSY experiments were performed with a stimulated echo using bipolar gradient pulses for diffusion, one spoil gradient, and the 3-9-19 pulse sequence with gradients for water suppression according to the Bruker pulse program stebpgp1s19. The gradient duration was set to δ = 10 ms (protein-only experiments) and 20ms (protein⋅carbohydrate complexes experiments), and the diffusion time was set to Δ = 40 ms. Gradient strength was linearly varied in 16 steps from 0.6 to 6.7 G/cm. For each of the 16 gradient amplitudes, eight transients of 192 complex data points were acquired to a 10.0-ppm spectral width. The pulse repetition delay between each scan was 3 s.
# [1] = target: T2, Trans-sialidase [3-643,Y342H] (Trypanosoma cruzi, UniProt Q9BHJ5, Y342H)
# T2 construct: 3-643
# T2 sequence (Q9BHJ5 3-643 Y344H): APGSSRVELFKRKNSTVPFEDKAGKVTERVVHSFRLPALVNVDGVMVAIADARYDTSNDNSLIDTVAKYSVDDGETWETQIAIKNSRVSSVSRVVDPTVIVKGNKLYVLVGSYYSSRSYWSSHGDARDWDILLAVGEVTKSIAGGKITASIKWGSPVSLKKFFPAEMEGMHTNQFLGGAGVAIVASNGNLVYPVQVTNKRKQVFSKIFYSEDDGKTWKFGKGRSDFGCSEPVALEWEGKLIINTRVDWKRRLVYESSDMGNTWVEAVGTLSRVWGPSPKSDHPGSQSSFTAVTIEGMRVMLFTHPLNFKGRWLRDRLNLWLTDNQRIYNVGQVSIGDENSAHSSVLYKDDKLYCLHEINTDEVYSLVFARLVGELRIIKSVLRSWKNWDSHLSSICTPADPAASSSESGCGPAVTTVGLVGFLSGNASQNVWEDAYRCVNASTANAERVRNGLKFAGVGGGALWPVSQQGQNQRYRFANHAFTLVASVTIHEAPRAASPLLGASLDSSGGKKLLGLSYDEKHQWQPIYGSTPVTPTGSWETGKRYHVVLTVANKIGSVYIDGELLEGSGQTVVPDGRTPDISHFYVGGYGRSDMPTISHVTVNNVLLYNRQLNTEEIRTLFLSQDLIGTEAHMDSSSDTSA
# Method: as §1
# [2] = target: T3, Trans-sialidase [3-643,D247A] (Trypanosoma cruzi, UniProt Q9BHJ5, D247A)
# T3 construct: 3-643
# T3 sequence (Q9BHJ5 3-643 D249A): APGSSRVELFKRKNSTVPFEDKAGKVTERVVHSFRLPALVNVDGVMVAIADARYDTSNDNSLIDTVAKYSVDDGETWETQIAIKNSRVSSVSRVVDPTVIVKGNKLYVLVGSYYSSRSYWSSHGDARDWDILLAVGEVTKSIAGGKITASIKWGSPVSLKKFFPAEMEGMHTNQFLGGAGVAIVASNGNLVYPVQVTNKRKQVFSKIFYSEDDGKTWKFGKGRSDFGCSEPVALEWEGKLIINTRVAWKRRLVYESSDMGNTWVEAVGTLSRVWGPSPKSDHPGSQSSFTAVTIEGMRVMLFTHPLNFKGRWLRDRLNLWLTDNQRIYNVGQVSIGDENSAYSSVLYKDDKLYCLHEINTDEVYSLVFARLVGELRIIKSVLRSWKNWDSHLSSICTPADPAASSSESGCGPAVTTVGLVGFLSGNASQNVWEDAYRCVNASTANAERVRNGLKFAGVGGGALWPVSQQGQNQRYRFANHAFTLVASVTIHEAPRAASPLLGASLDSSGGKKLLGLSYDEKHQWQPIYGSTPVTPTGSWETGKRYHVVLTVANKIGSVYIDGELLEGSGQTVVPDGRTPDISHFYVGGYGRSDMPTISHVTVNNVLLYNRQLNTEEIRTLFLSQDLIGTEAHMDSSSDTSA
# Method: as §1
structure (smiles),measurement,setting,value
COC1OC(CO)C(O)C(SC2(C(=O)O)CC(O)C(NC(C)=O)C([C@H](O)[C@H](O)CO)O2)C1O (stereo not given in full) [NeuSGal],Kd,Trans-sialidase [3-643],456 µM
"CC(=O)NC1C(O)CC(OC2C(O)C(CO)OC(OC3C(CO)OC(O)C(O)C3O)C2O)(C(=O)O)OC1[C@H](O)[C@H](O)CO (stereo partly drawn) [α2,3'-sialyllactose]",Kd,[1],234 µM
same,Kd,[2],107 µM
CO[C@@H]1O[C@H](CO)[C@@H](O[C@@H]2O[C@H](CO)[C@H](O)[C@H](O)[C@H]2O)[C@H](O)[C@H]1O [CHEBI:610092],Kd,[1],52 µM
same,Kd,Trans-sialidase [3-643],15 µM
